How the values were obtained:
PF-27 peaches = assay: Field thinning study, ACC and ABA, fruit set of PF-27 peaches; assay type: in vivo, peach; settings: 1000 ppm, application at shuck split
Source text: Application of ACC alone at shuck split reduced fruit set in a dose dependent manner (Table 10).

Babygold #5 peaches = assay: Scaffold gummosis rating of Babygold #5 peaches; assay type: in vivo, peach
Source text: Gummosis is a physiological stress response in which sap oozes from fractures in tree bark and often leads to tree decline. Use of 2-chloroethylphosphonic acid as a stone fruit thinning has been limited because it can stimulate severe incidences of gummosis of stone fruit.

Babygold #5 peach = assay: Field thinning study, fruit set of Babygold #5 peach; assay type: in vivo; settings: rate not given, 10 mm fruitlet timing
cotton cotyledons = assay: Cotton cotyledon bioassay, ethylene production; assay type: in vivo
Source text: For laboratory and growth chamber studies, deionized ultra-pure water was used in preparing solutions. Spray solutions were used as soon as possible after mixing. All spray solutions were amended with spray adjuvants as appropriate. A cotton cotyledon bioassay was used in the laboratory to study the effects of ACC or ethephon on induction of ethylene. Ten day old cotton plants with fully expanded cotyledons were used. Sprays were made to the upper (adaxial) surface of the leaves and the plants were then incubated in growth cabinets at the temperatures indicated. The cotyledons were excised at the times indicated and placed in sealed plastic vials. Headspace ethylene samples were measured on a Hewlett Packard 5890 gas chromatograph equipped with a packed Haysep T column (Alltech, Deerfield, Ill.) and a flame ionization detector.
Selected characteristics of ACC conversion to ethylene (i.e. dose response, time course, and temperature effect) were assessed to determine whether the relative consistence of ACC as a stone fruit and apple thinner was related to performance as an ethylene producer. In these bioassays, ACC solutions were applied to cotton cotyledons by a hand sprayer at the doses indicated and all spray solutions contained 0.05% (v/v) L-77.
In the first study, the effect of ACC dose sprays on ethylene produced by cotton cotyledons was determined. (Table 16). Cotton plants were sprayed with solution (ACC at 1, 10, 25, 50, 100, 250, 500, or 1000 ppm) and the cotyledons were excised 6 or 24 h after spraying and incubated in sealed tubes for 4 h. Ethylene levels were determined production was assayed.
In the second study, the time course of ethylene production following application of 500 mg/liter ACC or ethephon was determined (Table 17).
In the third study, the effect of temperature on ethylene production following ACC or ethephon application was determined (Table 18). The incubation of the plants following spraying and the incubation of the detached leaves were performed at 25 and 35° C.

Compound	Crop load (percent) of treated trees compared to the untreated control (PF-27 peaches)	Percent fruit set (PF-27 peaches)	Gummosis (in words) (Babygold #5 peaches; Babygold #5 peaches, Table 11 study)	Scaffold Gummosis (0 = no gummosis to 5 = severe gummosis) (Babygold #5 peaches; rate not given, 10 mm fruitlet timing, scale 0-5)	Percent Fruit Set (Babygold #5 peach)	Ethylene production (cotton cotyledons; 200 ppm, 24 h after application, incubated at 25 C)	Ethylene production (cotton cotyledons; 200 ppm, 24 h after application, incubated at 35 C)	Ethylene production (cotton cotyledons; 500 ppm, 1 h following spray application, 25 C (time course))	Ethylene production (cotton cotyledons; 500 ppm, 4 h following spray application, 25 C (time course))	Ethylene production (cotton cotyledons; 500 ppm, 15 h following spray application, 25 C (time course))	Ethylene production (cotton cotyledons; 500 ppm, 24 h following spray application, 25 C (time course))	Ethylene production (cotton cotyledons; 500 ppm, 48 h following spray application, 25 C (time course))
CC1=CC(=O)CC(C)(C)[C@@]1(O)/C=C/C(C)=C\C(=O)O [ABA, abscisic acid, reference compound]	80%	69%	–	–	–	–	–	–	–	–	–	–
O=P(O)(O)CCCl [Ethephon, 2-chloroethylphosphonic acid, reference compound]	–	–	substantially increased gummosis	4.7	8.4%	41.0 nl/g leaf weight/h incubated	133.1 nl/g leaf weight/h incubated	153.4 nl/g leaf weight/h incubated	102.5 nl/g leaf weight/h incubated	106.0 nl/g leaf weight/h incubated	90.8 nl/g leaf weight/h incubated	58.5 nl/g leaf weight/h incubated
